Values of other authors as cited in US7517545B2, “Reduced-calorie fats containing behenic acid and process of making thereof” (Council of Scientific & Industrial Research, priority 1997, dated 2009).

Conditions: feed study on rats

CCCCCCCCCCCCCCCCCCCCCCOC(COC(=O)CCCCC)COC(=O)CCCCC [2-behenyl-1,3-dicaproyl glycerol]
absorption of the structured triglycerides vs other oils: significantly lower | excretion into feces vs other oils: higher than other oils
